Assays:
barnyardgrass = assay: Test C flooded paddy test; assay type: in vivo, Echinochloa crus-galli; conditions: Flood, scale 0 to 100 (0 no effect, 100 complete control), 13 to 15 days
In short: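 In-water treatment: compound dosed into 3 cm flood over soil, water level unchanged throughout. Controls run alongside; visual assessment at day 13–15.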

corn = assay: Test E postemergence; assay type: in vivo, Zea mays
Source text: (§1) Seeds of plant species selected from corn (Zea mays), soybean (Glycine max), velvetleaf (Abutilon theophrasti), lambsquarters (Chenopodium album), wild poinsettia (Euphorbia heterophylla), palmer pigweed (Amaranthus palmeri), waterhemp (common waterhemp, Amaranthus rudis), surinam grass (Brachiaria decumbens), large (Lg) crabgrass (Digitaria sanguinalis), Brazilian crabgrass (Digitaria horizontalis), fall panicum (Panicum dichotomiflorum), giant foxtail (Setaria faberii), green foxtail (Setaria viridis), goosegrass (Eleusine indica), johnsongrass (Sorghum halepense), ragweed (common ragweed, Ambrosia elatior), barnyardgrass (Echinochloa crus-galli), sandbur (southern sandbur, Cenchrus echinatus), arrowleaf sida (Sida rhombifolia), Italian ryegrass (Lolium multiflorum), dayflower (Virginia (VA) dayflower, Commelina virginica), field bindweed (Convolvulus arvensis), morningglory (Ipomoea coccinea), nightshade (eastern black nightshade, Solanum ptycanthum), kochia (Kochia scoparia), yellow nutsedge (Cyperus esculentus), cocklebur (common cocklebur, Xanthium strumarium), smartweed (ladysthumb smartweed, and hairy beggarticks (Bidens pilosa), were planted into a silt loam soil and treated preemergence with test chemicals formulated in a non-phytotoxic solvent mixture which included a surfactant.
(§2) At the same time, plants from these crop and weed species and also horseweed (Canada horseweed, Conyza canadensis), waterhemp_RES1, (ALS & Triazine resistant common waterhemp, Amaranthus rudis), and waterhemp_RES2, (ALS & HPPD resistant common waterhemp, Amaranthus rudis) were planted in pots containing Redi-Earth® planting medium (Scotts Company, 14111 Scottslawn Road, Marysville, Ohio 43041) comprising spaghnum peat moss, vermiculite, wetting agent and starter nutrients were treated with postemergence applications of test chemicals formulated in the same manner. Plants ranged in height from 2 to 18 cm for postemergence treatments (1- to 4-leaf stage). Treated plants and controls were maintained in a greenhouse for 14 to 21 days, after which time all species were compared to controls and visually evaluated. Plant response ratings, summarized in Table E, are based on a scale of 0 to 100 where 0 is no effect and 100 is complete control. A dash (-) response means no test result.

palmer pigweed = assay: Test E postemergence; assay type: in vivo, Amaranthus palmeri
Source text: as §1, §2

Brazilian crabgrass = assay: Test E postemergence; assay type: in vivo, Digitaria horizontalis
Source text: as §1, §2

arrowleaf sida = assay: Test E postemergence; assay type: in vivo, Sida rhombifolia
Source text: as §1, §2

Italian ryegrass = assay: Test E postemergence; assay type: in vivo, Lolium multiflorum
Source text: as §1, §2

hairy beggarticks = assay: Test E postemergence; assay type: in vivo, Bidens pilosa
Source text: as §1, §2

[1] = Postemergence, 31 g ai/ha, scale 0 to 100
[2] = Postemergence, 62 g ai/ha, scale 0 to 100
[3] = Postemergence, 125 g ai/ha, scale 0 to 100
[4] = postemergence, 16 g ai/ha, scale 0 to 100, 0 no effect, 100 complete control

With `Fc1cccc(Oc2ncc(Cl)cn2)c1-n1cc(C(F)F)nn1` [Compound 141, 5-chloro-2-[2-[4-(difluoromethyl)-1H-1,2,3-triazol-1-yl]-3-fluorophenoxy]pyrimidine] the “Plant response rating, Barnyardgrass” value (barnyardgrass; 31 g ai/ha) was 0, the “Plant response rating, Barnyardgrass” value (barnyardgrass; 62 g ai/ha) was 0 and the “Plant response rating, Barnyardgrass” value (barnyardgrass; 125 g ai/ha) was 15. The “Plant response rating, Barnyardgrass” value (barnyardgrass; 250 g ai/ha) was 20.
For `Fc1cccc(Oc2ncc(Cl)cn2)c1-n1cc(Cl)cn1` [Compound 177], the “Plant response rating, Barnyardgrass” value (barnyardgrass; 31 g ai/ha) was 0, the “Plant response rating, Barnyardgrass” value (barnyardgrass; 62 g ai/ha) was 0 and the “Plant response rating, Barnyardgrass” value (barnyardgrass; 125 g ai/ha) was 0. The “Plant response rating, Barnyardgrass” value (barnyardgrass; 250 g ai/ha) was 0.
With `Clc1cnc(Oc2cccc(Cl)c2-n2cc(I)cn2)nc1` [Compound 181] the “Plant response rating, Corn” value (corn; [1]) was 5, the “Plant response rating, Corn” value (corn; [2]) was 15 and the “Plant response rating, Corn” value (corn; [3]) was 15. The “Plant response rating, Corn” value (corn; [4]) was 5, the “Plant response rating, Pigweed, Palmer” value (palmer pigweed; [1]) was 70 and the “Plant response rating, Pigweed, Palmer” value (palmer pigweed; [2]) was 90. The “Plant response rating, Pigweed, Palmer” value (palmer pigweed; [3]) was 98, the “Plant response rating, Pigweed, Palmer” value (palmer pigweed; [4]) was 80 and the “Plant response rating, Crabgrass, Brazil” value (Brazilian crabgrass; [1]) was 20. For the same compound, the “Plant response rating, Crabgrass, Brazil” value (Brazilian crabgrass; [2]) was 30, the “Plant response rating, Crabgrass, Brazil” value (Brazilian crabgrass; [3]) was 30 and the “Plant response rating, Crabgrass, Brazil” value (Brazilian crabgrass; [4]) was 20. For the same compound, the “Plant response rating, Arrowleaf Sida” value (arrowleaf sida; [1]) was 75, the “Plant response rating, Arrowleaf Sida” value (arrowleaf sida; [2]) was 70 and the “Plant response rating, Arrowleaf Sida” value (arrowleaf sida; [3]) was 95. The “Plant response rating, Arrowleaf Sida” value (arrowleaf sida; [4]) was 60, the “Plant response rating, Ryegrass, Italian” value (Italian ryegrass; [1]) was 5 and the “Plant response rating, Ryegrass, Italian” value (Italian ryegrass; [2]) was 10. For the same compound, the “Plant response rating, Ryegrass, Italian” value (Italian ryegrass; [3]) was 20, the “Plant response rating, Ryegrass, Italian” value (Italian ryegrass; [4]) was 5 and the “Plant response rating, Beggarticks” value (hairy beggarticks; [1]) was 40. The “Plant response rating, Beggarticks” value (hairy beggarticks; [2]) was 50, the “Plant response rating, Beggarticks” value (hairy beggarticks; [3]) was 60 and the “Plant response rating, Beggarticks” value (hairy beggarticks; [4]) was 40.
For `FC(F)c1cnn(-c2c(Cl)cccc2Oc2ncc(Cl)cn2)c1` [Compound 192], the “Plant response rating, Barnyardgrass” value (barnyardgrass; 31 g ai/ha) was 0, the “Plant response rating, Barnyardgrass” value (barnyardgrass; 62 g ai/ha) was 0 and the “Plant response rating, Barnyardgrass” value (barnyardgrass; 125 g ai/ha) was 0. The “Plant response rating, Barnyardgrass” value (barnyardgrass; 250 g ai/ha) was 0.

From patent US9695155B2, “Herbicidal substituted pyrimidinyloxy benzene compounds” (E. I. DU PONT DE NEMOURS AND COMPANY, priority 2013, dated 2017)
